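Test compounds were applied to cells in 96-well plates for 48 hours at 5 doses. GI50 is the concentration that inhibits growth by half.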 The source made the active and inactive calls. Rule as the data show it: active = GI50 up to about 1.1 µM and inactive = higher.
Legend:
Test in all cases: growth of human tumour cells (NCI), 48 h
[1] = tested on: BT-549
[2] = tested on: SW-620
[3] = tested on: TK-10
[4] = tested on: HOP-92
[5] = tested on: UACC-257
[6] = tested on: NCI-H23
[7] = tested on: MDA-MB-231
[8] = tested on: IGROV-1
[9] = tested on: SNB-19
[10] = tested on: NCI/ADR-RES
[11] = tested on: NCI-H226
[12] = tested on: CAKI-1
[13] = tested on: NCI-H522
[14] = tested on: UO-31
[15] = tested on: LOX IMVI
[16] = tested on: COLO 205
[17] = tested on: SK-MEL-28
[18] = tested on: OVCAR-8
[19] = tested on: HL-60
[20] = tested on: HT-29

SMILES | GI50 [1] | GI50 [2] | GI50 [3] | GI50 [4] | GI50 [5] | GI50 [6] | GI50 [7] | GI50 [8] | GI50 [9] | GI50 [10] | GI50 [11] | GI50 [12] | GI50 [13] | GI50 [14] | GI50 [15] | GI50 [16] | GI50 [17] | GI50 [18] | GI50 [19] | GI50 [20]
CN(C)S(=O)(=O)n1ccnc1 | > 100 µM (inactive) | > 100 µM (inactive) | > 100 µM (inactive) | > 100 µM (inactive) | > 100 µM (inactive) | > 100 µM (inactive) | > 100 µM (inactive) | > 100 µM (inactive) | > 100 µM (inactive) | > 100 µM (inactive) | > 100 µM (inactive) | > 100 µM (inactive) | > 100 µM (inactive) | > 100 µM (inactive) | > 100 µM (inactive) | > 100 µM (inactive) | > 100 µM (inactive) |  |  | 
COc1cccc(/C=C2\S/C(=N/Nc3nc(-c4ccc([N+](=O)[O-])cc4)cs3)NC2=O)c1O | 4.23 µM (inactive) | 19.3 µM (inactive) | 20.7 µM (inactive) | 10.3 µM (inactive) | 27.5 µM (inactive) | 11.7 µM (inactive) | 18.4 µM (inactive) | 11.3 µM (inactive) | 5.19 µM (inactive) | 17.9 µM (inactive) | 14.9 µM (inactive) | 25 µM (inactive) |  | 12.5 µM (inactive) | 3.25 µM (inactive) | 16.4 µM (inactive) | 20.8 µM (inactive) | 13.6 µM (inactive) | 4.45 µM (inactive) | 21.9 µM (inactive)
CCc1c(-c2ccc(OC)cc2)oc(OC)c(C)c1=O | 93.8 µM (inactive) | > 100 µM (inactive) | > 100 µM (inactive) | 97.1 µM (inactive) | 65.6 µM (inactive) | > 100 µM (inactive) | 75.7 µM (inactive) | > 100 µM (inactive) | > 100 µM (inactive) | 49 µM (inactive) |  | 99.1 µM (inactive) | 47.4 µM (inactive) | 64.6 µM (inactive) | 63.7 µM (inactive) | > 100 µM (inactive) | > 100 µM (inactive) | > 100 µM (inactive) |  | 91.4 µM (inactive)
COc1cc2cccc(N)c2cc1OC | > 66.7 µM (inactive) | > 100 µM (inactive) | > 26.3 µM (inactive) |  | > 100 µM (inactive) | > 100 µM (inactive) | > 100 µM (inactive) | > 100 µM (inactive) | > 100 µM (inactive) | > 100 µM (inactive) | > 100 µM (inactive) | > 100 µM (inactive) | > 100 µM (inactive) | > 100 µM (inactive) | > 100 µM (inactive) | > 100 µM (inactive) | > 100 µM (inactive) | > 100 µM (inactive) | > 100 µM (inactive) | > 100 µM (inactive)
Cc1nc(Cl)c(C)c(Cl)n1 | > 100 µM (inactive) | > 55.8 µM (inactive) | > 100 µM (inactive) |  | > 100 µM (inactive) | 35.3 µM (inactive) | > 100 µM (inactive) | 15.9 µM (inactive) | > 100 µM (inactive) | > 53 µM (inactive) | > 100 µM (inactive) | 0.0216 µM (active) | < 0.01 µM (active) |  | 33 µM (inactive) | > 100 µM (inactive) | > 93.3 µM (inactive) | > 100 µM (inactive) | 8.59 µM (inactive) | > 44.7 µM (inactive)
COc1cccc(CN(C(=O)/C=C\Sc2ccccc2)C(C)(C)C)c1 | 90.2 µM (inactive) | > 100 µM (inactive) | > 100 µM (inactive) | 2.61 µM (inactive) | 41 µM (inactive) | > 100 µM (inactive) | > 100 µM (inactive) | 57.1 µM (inactive) | > 100 µM (inactive) | 58.9 µM (inactive) | > 100 µM (inactive) | > 100 µM (inactive) |  | 48.3 µM (inactive) | 32.5 µM (inactive) | 63.7 µM (inactive) | > 100 µM (inactive) | > 100 µM (inactive) | 20.5 µM (inactive) | 31.1 µM (inactive)
CN(C)c1ccc(/N=N/c2ccncc2)cc1 | 84.1 µM (inactive) | > 100 µM (inactive) | > 100 µM (inactive) | 17.6 µM (inactive) | > 100 µM (inactive) | > 100 µM (inactive) | > 100 µM (inactive) | > 100 µM (inactive) | > 100 µM (inactive) | 31.2 µM (inactive) | 64.4 µM (inactive) | > 100 µM (inactive) |  | > 100 µM (inactive) | 93.1 µM (inactive) | 56.6 µM (inactive) | > 100 µM (inactive) | > 100 µM (inactive) | > 100 µM (inactive) | 95.1 µM (inactive)
CCOC(=O)N1C(=S)C(C(=O)OC)(C(=O)OC)N=C1C | > 100 µM (inactive) | > 100 µM (inactive) | > 100 µM (inactive) | > 100 µM (inactive) | > 100 µM (inactive) | > 100 µM (inactive) |  | > 100 µM (inactive) | > 100 µM (inactive) | > 100 µM (inactive) | > 100 µM (inactive) | > 100 µM (inactive) |  | > 100 µM (inactive) | > 100 µM (inactive) | > 100 µM (inactive) | > 100 µM (inactive) | > 100 µM (inactive) | > 100 µM (inactive) | 
CCCCNCCCNCCCNC(=O)c1csc(-c2csc(CCNC(=O)C(NC(=O)C(C)C(O)C(C)NC(=O)C(NC(=O)c3nc(C(CC(N)=O)NCC(N)C(N)=O)nc(N)c3C)C(OC3OC(CO)C(O)C(O)C3OC3OC(CO)C(O)C(OC(N)=O)C3O)c3c[nH]cn3)C(C)O)n2)n1 (configuration not stated) | > 50 µM (inactive) | 15.2 µM (inactive) | 17.3 µM (inactive) | 0.0798 µM (active) | 14.3 µM (inactive) | 0.083 µM (active) | 30.3 µM (inactive) | 4.04 µM (inactive) | 6.89 µM (inactive) |  | 0.175 µM (active) | 0.362 µM (active) | 0.791 µM (active) | 0.372 µM (active) | 0.105 µM (active) | 9.44 µM (inactive) | 13.6 µM (inactive) | 1.92 µM (inactive) | 14.9 µM (inactive) | 25.1 µM (inactive)
CC(C)=CC1C(C(=O)OCc2cc3c(cc2Cl)OCO3)C1(C)C (configuration not stated) | 63 µM (inactive) | 55.7 µM (inactive) | 63.2 µM (inactive) | 31.7 µM (inactive) | 12.6 µM (inactive) | 25.8 µM (inactive) | 13.5 µM (inactive) | 20 µM (inactive) | > 100 µM (inactive) | 42.8 µM (inactive) | 39.6 µM (inactive) | 56.1 µM (inactive) | 15.1 µM (inactive) | 46.1 µM (inactive) | 16.6 µM (inactive) |  | 54.1 µM (inactive) | 44.3 µM (inactive) |  | 23.1 µM (inactive)
CN(C(=O)CCC(=O)O)c1ccccc1C(=O)O | > 100 µM (inactive) | > 100 µM (inactive) | > 100 µM (inactive) | > 100 µM (inactive) | 40.4 µM (inactive) | > 100 µM (inactive) | > 100 µM (inactive) | > 100 µM (inactive) | > 100 µM (inactive) | > 100 µM (inactive) | > 100 µM (inactive) | > 100 µM (inactive) |  | > 100 µM (inactive) | > 100 µM (inactive) | > 100 µM (inactive) | > 100 µM (inactive) | > 100 µM (inactive) | > 100 µM (inactive) | > 100 µM (inactive)
O=C(CCc1ccccc1)n1cccc1CO | > 100 µM (inactive) | > 100 µM (inactive) | > 100 µM (inactive) |  | > 100 µM (inactive) | > 100 µM (inactive) | > 100 µM (inactive) | > 100 µM (inactive) | > 100 µM (inactive) | > 100 µM (inactive) | > 100 µM (inactive) | > 100 µM (inactive) | > 100 µM (inactive) | > 100 µM (inactive) | > 100 µM (inactive) | > 100 µM (inactive) | > 100 µM (inactive) | > 100 µM (inactive) | > 100 µM (inactive) | > 100 µM (inactive)
CC1(C)CN(c2ccccc2)C(=O)C1OC(=O)[C@@]1(C)C[C@@H]2C=C[C@H]1C2 (some centres not stated) | 33.9 µM (inactive) | 33.3 µM (inactive) | 30.7 µM (inactive) | 27.9 µM (inactive) | 24.5 µM (inactive) | 25.2 µM (inactive) | 24.5 µM (inactive) | 16.9 µM (inactive) | 28.8 µM (inactive) | 23 µM (inactive) | 23.3 µM (inactive) | 26.5 µM (inactive) |  | 13.7 µM (inactive) | 18.9 µM (inactive) | 19.1 µM (inactive) | 18.1 µM (inactive) | 32.2 µM (inactive) | 20.3 µM (inactive) | 12.5 µM (inactive)
c1ccc([P+](c2ccccc2)(c2ccccc2)c2ccc([P+](c3ccccc3)(c3ccccc3)c3ccccc3)c3ccccc23)cc1 | 51.2 µM (inactive) | > 100 µM (inactive) | > 100 µM (inactive) |  | 32 µM (inactive) | 57.4 µM (inactive) | > 100 µM (inactive) | 94.8 µM (inactive) | 65 µM (inactive) | > 100 µM (inactive) | > 100 µM (inactive) | > 100 µM (inactive) | 44.4 µM (inactive) | > 100 µM (inactive) | 30.5 µM (inactive) | 52.7 µM (inactive) | > 100 µM (inactive) | 88.1 µM (inactive) | 41.6 µM (inactive) | 79.4 µM (inactive)
Oc1cc(-c2ccc3ccccc3c2)nc2ncc(Cl)cc12 | 37.8 µM (inactive) | 4.12 µM (inactive) | 12.7 µM (inactive) | 5.31 µM (inactive) | 9.06 µM (inactive) | 7.14 µM (inactive) | 15.6 µM (inactive) | 8.09 µM (inactive) | 9.31 µM (inactive) | 6.32 µM (inactive) | 12 µM (inactive) |  | 4.32 µM (inactive) | 14.4 µM (inactive) | 5.33 µM (inactive) | 3.81 µM (inactive) | 40.9 µM (inactive) | 6.15 µM (inactive) |  | 5.66 µM (inactive)

From ChEMBL document CHEMBL1201862, “PubChem BioAssay data set” (2004)
